Molecular target: T1, ΔF508 mutant CFTR (Homo sapiens, UniProt P13569, DEL508-508)
T1 construct: expressed in transfected cells; host or cells: Fischer rat thyroid (FRT) cells
Assay: Fluorescence Assay (halide-sensitive YFP, iodide influx) for ΔF508 mutant CFTR activity
Format: cell-based
Details: FRT cells expressing ΔF508-CFTR and YFP-H148Q/I152L, incubated 27° C. 20-24 h; forskolin (20 μM) and test compounds (20 μM) for 20 min; rate of fluorescence quenching by I−, normalized to forskolin alone
Text: The ΔF508 mutant CFTR activities of the CFTR modulators are detected using the Fluorescence Assay developed by Pedemonte (Pedemonte N., et al., Antihypertensive 1,4-dihydropyridines as correctors of the cystic fibrosis transmembrane conductance regulator channel gating defect caused by cystic fibrosis mutations, Mol. Pharmacol., 2005, 68, 1736-1746).
Fischer rat thyroid (FRT) cells, stably transfected with ΔF508 were retransfected with the YFP-H148Q/I152L fluorescent protein. The cells were plated (100,000 cells/well) on black 96-well microplates with clear plastic bottom (Corning Life Sciences, Acton, Mass.).
The 96-well microplates containing FRT cells expressing F508-CFTR and the halide-sensitive YFP were incubated at 27° C. for 20 to 24 h to allow rescue of the mutant protein to the plasma membrane. After incubation, cells were washed with PBS (containing 137 mM NaCl, 2.7 mM KCl, 8.1 mM Na2HPO4, 1.5 mM KH2PO4, 1 mM CaCl2, and 0.5 mM MgCl2) and stimulated for 20 min with forskolin (20 μM) and test compounds (20 μM) in a final volume of […] Microplates were then transferred to a microplate reader for CFTR activity determination.

T1 sequence (P13569 with tags, fused parts or gaps DEL508-508): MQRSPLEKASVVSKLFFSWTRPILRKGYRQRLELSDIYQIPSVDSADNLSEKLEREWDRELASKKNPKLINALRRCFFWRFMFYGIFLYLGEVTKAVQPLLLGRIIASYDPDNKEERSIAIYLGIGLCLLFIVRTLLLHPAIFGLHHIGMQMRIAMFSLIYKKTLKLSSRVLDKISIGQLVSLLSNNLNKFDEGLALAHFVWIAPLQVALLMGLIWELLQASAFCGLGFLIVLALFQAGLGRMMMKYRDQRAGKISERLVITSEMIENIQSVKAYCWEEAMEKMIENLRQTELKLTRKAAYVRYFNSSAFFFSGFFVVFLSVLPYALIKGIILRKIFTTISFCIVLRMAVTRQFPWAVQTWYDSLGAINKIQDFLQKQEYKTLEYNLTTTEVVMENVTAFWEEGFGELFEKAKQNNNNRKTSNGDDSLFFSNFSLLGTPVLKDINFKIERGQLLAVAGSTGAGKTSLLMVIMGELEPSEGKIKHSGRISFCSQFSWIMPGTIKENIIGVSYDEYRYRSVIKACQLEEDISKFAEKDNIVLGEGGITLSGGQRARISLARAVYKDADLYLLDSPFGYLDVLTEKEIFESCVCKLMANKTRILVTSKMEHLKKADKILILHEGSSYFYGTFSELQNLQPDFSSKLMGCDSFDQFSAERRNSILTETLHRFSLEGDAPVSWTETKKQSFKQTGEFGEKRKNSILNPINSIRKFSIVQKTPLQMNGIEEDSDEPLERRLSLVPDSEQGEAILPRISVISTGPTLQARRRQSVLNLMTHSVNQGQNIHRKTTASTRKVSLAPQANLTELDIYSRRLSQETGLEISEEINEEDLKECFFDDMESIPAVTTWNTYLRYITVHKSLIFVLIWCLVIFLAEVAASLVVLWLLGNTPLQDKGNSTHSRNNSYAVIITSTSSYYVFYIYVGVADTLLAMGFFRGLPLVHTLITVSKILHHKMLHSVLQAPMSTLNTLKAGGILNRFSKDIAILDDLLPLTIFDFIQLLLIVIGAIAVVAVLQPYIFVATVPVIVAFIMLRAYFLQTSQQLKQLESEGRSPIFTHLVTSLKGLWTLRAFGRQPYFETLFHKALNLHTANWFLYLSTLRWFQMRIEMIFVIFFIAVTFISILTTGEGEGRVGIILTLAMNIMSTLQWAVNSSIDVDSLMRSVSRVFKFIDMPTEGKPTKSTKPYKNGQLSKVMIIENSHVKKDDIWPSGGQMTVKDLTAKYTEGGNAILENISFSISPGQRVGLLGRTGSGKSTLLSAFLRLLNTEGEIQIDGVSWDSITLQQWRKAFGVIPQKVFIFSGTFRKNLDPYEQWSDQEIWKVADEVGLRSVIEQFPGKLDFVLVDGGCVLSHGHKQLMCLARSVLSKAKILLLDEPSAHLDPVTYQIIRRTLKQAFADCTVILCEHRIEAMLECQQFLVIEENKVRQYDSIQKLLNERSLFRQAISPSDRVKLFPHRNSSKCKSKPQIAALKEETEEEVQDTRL

Structure (SMILES): Cl.Nc1cc(F)c(-c2c(F)cccc2F)nc1C(=O)Nc1cnsc1OCC1CNC1 [Example 32, 3-amino-N-(5-(azetidin-3-ylmethoxy)isothiazol-4-yl)-6-(2,6-difluorophenyl)-5-fluoropicolinamide hydrochloride]
- CFTR Activity: 0.3

Structure (SMILES): Cl.NCC(CCl)Oc1sncc1NC(=O)c1nc(-c2c(F)cccc2F)c(F)cc1N (centres unmarked) [Example 33, 3-amino-N-(5-((1-amino-3-chloropropan-2-yl)oxy)isothiazol-4-yl)-6-(2,6-difluorophenyl)-5-fluoropicolinamide hydrochloride]
- CFTR Activity: 1.6

Structure (SMILES): Cl.NCC(CCl)COc1sncc1NC(=O)c1nc(-c2c(F)cccc2F)c(F)cc1N (centres unmarked) [Example 34, 3-amino-N-(5-(3-amino-2-(chloromethyl)propoxy)isothiazol-4-yl)-6-(2,6-difluorophenyl)-5-fluoropicolinamide hydrochloride]
- CFTR Activity: 1.6

Structure (SMILES): Cl.Nc1cc(F)c(-c2c(F)cccc2F)nc1C(=O)Nc1cnsc1OCC1CCCNC1 (centres unmarked) [Example 35, 3-amino-6-(2,6-difluorophenyl)-5-fluoro-N-(5-(piperidin-3-ylmethoxy)isothiazol-4-yl)picolinamide hydrochloride]
- CFTR Activity: 1.6

Structure (SMILES): Cl.NCCCCOc1sncc1NC(=O)c1nc(-c2c(F)cccc2F)c(F)cc1N [Example 36, 3-amino-N-(5-(4-aminobutoxy)isothiazol-4-yl)-6-(2,6-difluorophenyl)-5-fluoropicolinamide hydrochloride]
- CFTR Activity: 1.8

Structure (SMILES): Cl.Nc1cc(F)c(-c2c(F)cccc2F)nc1C(=O)Nc1cnsc1OC1CCCC(N)C1 (centres unmarked) [Example 37, 3-amino-N-(5-((3-aminocyclohexyl)oxy)isothiazol-4-yl)-6-(2,6-difluorophenyl)-5-fluoropicolinamide hydrochloride]
- CFTR Activity: 2.9

Structure (SMILES): Cl.Nc1cc(F)c(-c2ccccc2)nc1C(=O)Nc1cnsc1OC1CCNC1 (centres unmarked) [Example 38, 3-amino-5-fluoro-6-phenyl-N-(5-(pyrrolidin-3-yloxy)isothiazol-4-yl)picolinamide hydrochloride]
- CFTR Activity: 1.3

Structure (SMILES): Cl.O=C(Nc1cnsc1OC1CCNCC1)c1ccc(F)c(-c2ccncc2)n1 [Example 39, 3-fluoro-N-(5-(piperidin-4-yloxy)isothiazol-4-yl)-[2,4′-bipyridine]-6-carboxamide hydrochloride]
- CFTR Activity: 0.3

Structure (SMILES): Cl.O=C(Nc1cnsc1OC1CCCNCC1)c1nc(-c2c(F)cccc2F)ccc1F (centres unmarked) [Example 40, N-(5-(azepan-4-yloxy)isothiazol-4-yl)-6-(2,6-difluorophenyl)-3-fluoropicolinamide hydrochloride]
- CFTR Activity: 1.4

Structure (SMILES): COc1cccc(F)c1-c1nc(C(=O)Nc2cnsc2OC2CCCNCC2)ccc1F.Cl (centres unmarked) [Example 41, N-(5-(azepan-4-yloxy)isothiazol-4-yl)-5-fluoro-6-(2-fluoro-6-methoxyphenyl)picolinamide hydrochloride]
- CFTR Activity: 1.6

Structure (SMILES): Cl.O=C(Nc1cnsc1OC1CCCNCC1)c1ccc(C(F)(F)F)c(-c2c(F)cccc2F)n1 (centres unmarked) [Example 42, N-(5-(azepan-4-yloxy)isothiazol-4-yl)-6-(2,6-difluorophenyl)-5-(trifluoromethyl)picolinamide hydrochloride]
- CFTR Activity: 0.4

Structure (SMILES): Cl.O=C(Nc1cnsc1OCC1CCNCC1)c1ccc(C(F)(F)F)c(-c2c(F)cccc2F)n1 [Example 43, 6-(2,6-difluorophenyl)-N-(5-(piperidin-4-ylmethoxy)isothiazol-4-yl)-5-(trifluoromethyl)picolinamide hydrochloride]
- CFTR Activity: 0.3

Structure (SMILES): Cl.O=C(Nc1cnsc1OCC1CNC1)c1ccc(C(F)(F)F)c(-c2c(F)cccc2F)n1 [Example 44, N-(5-(azetidin-3-ylmethoxy)isothiazol-4-yl)-6-(2,6-difluorophenyl)-5-(trifluoromethyl)picolinamide hydrochloride]
- CFTR Activity: 0.3

Structure (SMILES): Cl.O=C(Nc1cnsc1OC1CCNCC1)c1ccc(C(F)(F)F)c(-c2c(F)cccc2F)n1 [Example 45, 6-(2,6-difluorophenyl)-N-(5-(piperidin-4-yloxy)isothiazol-4-yl)-5-(trifluoromethyl)picolinamide hydrochloride]
- CFTR Activity: 1.7

Structure (SMILES): Cl.N[C@H]1CC[C@H](Oc2sncc2NC(=O)c2ccc(C(F)(F)F)c(-c3c(F)cccc3F)n2)CC1 [Example 46, N-(5-(((1r,4r)-4-aminocyclohexyl)oxy)isothiazol-4-yl)-6-(2,6-difluorophenyl)-5-(trifluoromethyl)picolinamide hydrochloride]
- CFTR Activity: 1

Structure (SMILES): O=C(Nc1cnsc1OCC1CCOCC1)c1ccc(C(F)(F)F)c(-c2c(F)cccc2F)n1 [Example 47]
- CFTR Activity: 0.6

Structure (SMILES): Cl.Nc1cc(C(F)(F)F)c(-c2c(F)cccc2F)nc1C(=O)Nc1cnsc1OC1CCCNCC1 (centres unmarked) [Example 48, 3-amino-N-(5-(azepan-4-yloxy)isothiazol-4-yl)-6-(2,6-difluorophenyl)-5-(trifluoromethyl)picolinamide hydrochloride]
- CFTR Activity: 0.7

Structure (SMILES): Cl.Nc1cc(C(F)(F)F)c(-c2c(F)cccc2F)nc1C(=O)Nc1cnsc1OCC1CCNCC1 [Example 49, 3-amino-6-(2,6-difluorophenyl)-N-(5-(piperidin-4-ylmethoxy)isothiazol-4-yl)-5-(trifluoromethyl)picolinamide hydrochloride]
- CFTR Activity: 0.2

Structure (SMILES): Cl.Nc1cc(C(F)(F)F)c(-c2c(F)cccc2F)nc1C(=O)Nc1cnsc1OCC1CNC1 [Example 50, 3-amino-N-(5-(azetidin-3-ylmethoxy)isothiazol-4-yl)-6-(2,6-difluorophenyl)-5-(trifluoromethyl)picolinamide hydrochloride]
- CFTR Activity: 0.1

Structure (SMILES): Cl.Nc1cc(C(F)(F)F)c(-c2c(F)cccc2F)nc1C(=O)Nc1cnsc1OC1CCNCC1 [Example 51, 3-amino-6-(2,6-difluorophenyl)-N-(5-(piperidin-4-yloxy)isothiazol-4-yl)-5-(trifluoromethyl)picolinamide hydrochloride]
- CFTR Activity: 0.7

Structure (SMILES): Cl.Nc1cc(C(F)(F)F)c(-c2c(F)cccc2F)nc1C(=O)Nc1cnsc1O[C@H]1CC[C@H](N)CC1 [Example 52, 3-amino-N-(5-(((1r,4r)-4-aminocyclohexyl)oxy)isothiazol-4-yl)-6-(2,6-difluorophenyl)-5-(trifluoromethyl)picolinamide hydrochloride]
- CFTR Activity: 4.6

Structure (SMILES): Cl.Nc1cc(C(F)(F)F)c(-c2ccccc2)nc1C(=O)Nc1cnsc1OC1CCNC1 (centres unmarked) [Example 53, 3-amino-6-phenyl-N-(5-(pyrrolidin-3-yloxy)isothiazol-4-yl)-5-(trifluoromethyl)picolinamide hydrochloride]
- CFTR Activity: 0.4

Structure (SMILES): Cl.NCC(CCl)COc1sncc1NC(=O)c1ccc(C(F)(F)F)c(-c2c(F)cccc2F)n1 (centres unmarked) [Example 54, N-(5-(3-amino-2-(chloromethyl)propoxy)isothiazol-4-yl)-6-(2,6-difluorophenyl)-5-(trifluoromethyl)picolinamide hydrochloride]
- CFTR Activity: 0.5

Structure (SMILES): Cl.NCC(CCl)COc1sncc1NC(=O)c1nc(-c2c(F)cccc2F)c(C(F)(F)F)cc1N (centres unmarked) [Example 55, 3-amino-N-(5-(3-amino-2-(chloromethyl)propoxy)isothiazol-4-yl)-6-(2,6-difluorophenyl)-5-(trifluoromethyl)picolinamide hydrochloride]
- CFTR Activity: 0.5

Structure (SMILES): Cl.NCC(CO)COc1sncc1NC(=O)c1ccc(F)c(-c2c(F)cccc2F)n1 (centres unmarked) [Example 56, N-(5-(3-amino-2-(hydroxymethyl)propoxy)isothiazol-4-yl)-6-(2,6-difluorophenyl)-5-fluoropicolinamide hydrochloride]
- CFTR Activity: 0.5

Structure (SMILES): Cl.NCC(CO)COc1sncc1NC(=O)c1nc(-c2c(F)cccc2F)c(F)cc1N (centres unmarked) [Example 57, 3-amino-N-(5-(3-amino-2-(hydroxymethyl)propoxy)isothiazol-4-yl)-6-(2,6-difluorophenyl)-5-fluoropicolinamide hydrochloride]
- CFTR Activity: 1.8

Structure (SMILES): Cl.NCC(CO)COc1sncc1NC(=O)c1ccc(C(F)(F)F)c(-c2c(F)cccc2F)n1 (centres unmarked) [Example 58, N-(5-(3-amino-2-(hydroxymethyl)propoxy)isothiazol-4-yl)-6-(2,6-difluorophenyl)-5-(trifluoromethyl)picolinamide hydrochloride]
- CFTR Activity: 2

Structure (SMILES): Cl.NCC(CO)COc1sncc1NC(=O)c1nc(-c2c(F)cccc2F)c(C(F)(F)F)cc1N (centres unmarked) [Example 59, 3-amino-N-(5-(3-amino-2-(hydroxymethyl)propoxy)isothiazol-4-yl)-6-(2,6-difluorophenyl)-5-(trifluoromethyl)picolinamide hydrochloride]
- CFTR Activity: 2.3

Structure (SMILES): Cl.NC1CCCC(Oc2sncc2NC(=O)c2ccc(C(F)(F)F)c(-c3c(F)cccc3F)n2)C1 (centres unmarked) [Example 60, N-(5-((3-aminocyclohexyl)oxy)isothiazol-4-yl)-6-(2,6-difluorophenyl)-5-(trifluoromethyl)picolinamide hydrochloride]
- CFTR Activity: 0.1

Reference: US9890149B2 (NuBridge BioSciences, priority 2015, dated 2018)
